Molecular target: T1, TGM2 (in MC3T3-E1 cells) (Mus musculus, UniProt P21981)
T1 construct: native full-length protein in MC3T3-E1 pre-osteoblast cells
T1 sequence (P21981 2-686): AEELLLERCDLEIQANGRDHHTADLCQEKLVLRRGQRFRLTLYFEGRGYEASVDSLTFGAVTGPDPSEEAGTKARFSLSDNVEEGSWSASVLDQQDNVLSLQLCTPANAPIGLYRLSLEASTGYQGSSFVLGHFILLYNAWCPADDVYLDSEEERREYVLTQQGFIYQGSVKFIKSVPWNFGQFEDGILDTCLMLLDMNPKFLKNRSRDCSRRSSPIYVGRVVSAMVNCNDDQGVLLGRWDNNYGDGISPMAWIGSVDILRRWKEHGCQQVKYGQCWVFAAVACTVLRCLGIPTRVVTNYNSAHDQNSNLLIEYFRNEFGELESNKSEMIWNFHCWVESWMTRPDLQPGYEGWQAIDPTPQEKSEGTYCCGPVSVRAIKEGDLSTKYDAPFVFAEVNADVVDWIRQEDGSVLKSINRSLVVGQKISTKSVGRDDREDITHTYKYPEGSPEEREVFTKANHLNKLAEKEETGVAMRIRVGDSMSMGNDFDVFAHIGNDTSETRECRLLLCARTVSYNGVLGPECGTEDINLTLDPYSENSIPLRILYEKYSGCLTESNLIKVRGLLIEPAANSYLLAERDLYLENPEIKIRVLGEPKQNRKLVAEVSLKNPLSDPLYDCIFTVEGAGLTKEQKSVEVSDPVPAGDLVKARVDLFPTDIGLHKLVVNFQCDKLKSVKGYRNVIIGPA
Test: CETSA; DARTS
Type: cell-based

## C=C[C@@]1(C)CC(=O)[C@]2(O)[C@@]3(C)[C@@H](O)CCC(C)(C)[C@@H]3[C@H](O)[C@H](OC(C)=O)[C@@]2(C)O1 [Forskolin]
  thermal stabilisation (CETSA): FSK enhanced the thermal stability of TGM2

Reference: PMC10288273, “Allosteric Activation of Transglutaminase 2 via Inducing an “Open” Conformation for Osteoblast Differentiation” (Advanced Science, 2023)
